ChEMBL document CHEMBL1201862, “PubChem BioAssay data set” (2004)
Activity calls are given as the source filed them.

Assays:
[1] = target: T1, High affinity choline transporter 1 (Homo sapiens, UniProt Q9GZV3); assay: CHT inhibitors, dose response, cell-based, 5-point CRC, membrane potential dye (AID 504840); assay type: functional
T1 sequence (Q9GZV3 whole entry): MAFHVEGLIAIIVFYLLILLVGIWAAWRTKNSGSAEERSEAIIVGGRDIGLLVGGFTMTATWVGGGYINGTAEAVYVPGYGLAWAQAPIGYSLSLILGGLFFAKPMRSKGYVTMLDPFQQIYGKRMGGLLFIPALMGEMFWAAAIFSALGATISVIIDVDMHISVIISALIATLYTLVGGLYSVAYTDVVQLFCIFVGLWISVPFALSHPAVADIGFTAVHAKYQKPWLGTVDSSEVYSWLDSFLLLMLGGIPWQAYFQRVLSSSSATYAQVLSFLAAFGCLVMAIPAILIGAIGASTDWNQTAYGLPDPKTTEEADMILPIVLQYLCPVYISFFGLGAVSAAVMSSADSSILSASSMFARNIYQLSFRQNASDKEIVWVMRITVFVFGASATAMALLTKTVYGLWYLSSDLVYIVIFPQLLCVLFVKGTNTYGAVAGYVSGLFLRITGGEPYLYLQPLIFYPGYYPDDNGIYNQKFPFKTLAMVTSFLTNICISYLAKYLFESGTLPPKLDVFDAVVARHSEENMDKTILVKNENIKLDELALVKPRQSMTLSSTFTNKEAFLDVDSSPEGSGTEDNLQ

[2] = target: T1, High affinity choline transporter 1; assay: CHT inhibitors, dose response, cell-based, 10-point CRC, membrane potential dye (AID 588401); assay type: functional;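 also: membrane potential dye fluorescence of choline-evoked depolarization via CHT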
[3] = target: 26S proteasome non-ATPase regulatory subunit 14 (Homo sapiens, UniProt O00487); assay: inhibition of proteasome subunit RPN11 – biochemical, fluorescence polarization, uHTS hits, confirmation (AID 602368); assay type: functional
Prothrombin = Prothrombin (Bos taurus, UniProt P00735); assay: thrombin inhibition, dose response, biochemical, fluorescence polarization, uHTS hits (AID 602369); assay type: functional
[4] = target: 72 kDa type IV collagenase (Homo sapiens, UniProt P08253); assay: Dose Response validation of uHTS RPN11 inhibitor hits using a MMP-2 Fluorescence assay.; assay type: functional
Keap1/Nrf2 = Keap1/Nrf2 (Homo sapiens, UniProt Q14145); assay: Keap1-Nrf2 protein-protein interaction inhibitors, dose response, biochemical, fluorescence polarization, cherry-picked samples (AID 588683)
[5] = target: T2, Corticotropin-releasing factor receptor 2/Corticotropin-releasing factor-binding protein (Homo sapiens, UniProt P24387+Q13324); assay: activators of CRF receptor 2 with binding protein – uHTS hits, confirmation (AID 602473); assay type: functional; settings: read-out: EC50_Mean
T2 sequence (Q13324 whole entry): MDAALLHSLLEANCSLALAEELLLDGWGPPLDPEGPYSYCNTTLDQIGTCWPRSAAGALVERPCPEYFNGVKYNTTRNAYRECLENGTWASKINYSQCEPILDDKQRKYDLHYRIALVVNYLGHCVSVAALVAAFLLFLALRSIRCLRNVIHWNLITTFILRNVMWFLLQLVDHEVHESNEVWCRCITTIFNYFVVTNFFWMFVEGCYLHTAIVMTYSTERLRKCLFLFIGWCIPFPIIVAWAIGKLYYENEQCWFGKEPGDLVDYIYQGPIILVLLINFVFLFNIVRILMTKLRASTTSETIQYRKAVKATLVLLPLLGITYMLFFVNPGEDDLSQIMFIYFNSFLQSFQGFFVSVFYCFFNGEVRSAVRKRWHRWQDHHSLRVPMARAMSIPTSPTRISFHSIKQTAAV
T2 sequence (P24387 whole entry): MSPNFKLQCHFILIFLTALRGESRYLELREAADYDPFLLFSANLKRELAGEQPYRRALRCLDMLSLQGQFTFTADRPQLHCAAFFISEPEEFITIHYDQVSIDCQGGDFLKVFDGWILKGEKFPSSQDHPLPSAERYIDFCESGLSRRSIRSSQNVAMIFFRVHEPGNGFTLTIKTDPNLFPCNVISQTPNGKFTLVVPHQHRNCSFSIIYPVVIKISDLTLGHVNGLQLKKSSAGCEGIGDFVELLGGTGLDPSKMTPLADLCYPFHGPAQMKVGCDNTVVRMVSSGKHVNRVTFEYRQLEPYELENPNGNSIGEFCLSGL

[6] = Luminescence Cell-Based Dose Response HTS to Identify Activators of Luciferase Translation or Activity in H4 […] Cells. [Related pubchem assays: 1829 (Project Summary), 1814 (Primary HTS)]; assay type: functional
[7] = Luminescence Cell-Based Dose Confirmation HTS to Identify Activators of 5'UTR Stem-Loop Driven Alpha-Synuclein mRNA Translation in H4 Neuroglioblastoma Cells. [Related pubchem assays: 1829 (Project Summary), 1814 (Primary HTS)]; assay type: functional
H4 = assay: Luminescence Cell-Based Dose Response HTS to Identify Activators of 5'UTR Stem-Loop Driven Prion Protein mRNA Translation in H4 Neuroglioblastoma Cells. [Related pubchem assays: 1829 (Project Summary), 1814 (Primary HTS)]; assay type: functional; settings: Homo sapiens
[8] = target: Potassium voltage-gated channel subfamily KQT member 2 (Rattus norvegicus, UniProt O88943); assay: KCNQ2 potassium channel inhibitors, dose response, cell-based, automated electrophysiology, set II, rat KCNQ2 (AID 588637); assay type: functional
Escherichia coli [9] = assay: microbe, parasite or virus in culture
[10] = target: Sentrin-specific protease 7 (Homo sapiens, UniProt Q9BQF6); assay type: functional;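 also: Luminescence-based dose-response confirmation of ultra-high-throughput screening hits, measuring inhibition of SENP7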
Caspase-3 = target: T3, Caspase-3 (Homo sapiens, UniProt P42574); assay type: functional;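 also: Dose-response selectivity test against caspase-3 for candidate inhibitors of sentrin-specific proteases (SENPs)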
T3 sequence (P42574 whole entry): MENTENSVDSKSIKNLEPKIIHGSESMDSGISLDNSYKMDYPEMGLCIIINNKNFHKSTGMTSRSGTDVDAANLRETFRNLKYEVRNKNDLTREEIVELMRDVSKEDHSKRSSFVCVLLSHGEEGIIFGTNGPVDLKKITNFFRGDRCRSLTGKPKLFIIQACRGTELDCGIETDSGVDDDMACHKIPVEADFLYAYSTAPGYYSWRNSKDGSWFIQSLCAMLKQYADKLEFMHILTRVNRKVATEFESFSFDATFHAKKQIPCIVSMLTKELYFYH

[11] = target: T4, Sentrin-specific protease 8 (Homo sapiens, UniProt Q96LD8); assay type: functional;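 also: luminescence read-out of SENP8 inhibition, dose-response confirmation following an ultra-high-throughput screen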
T4 sequence (Q96LD8 whole entry): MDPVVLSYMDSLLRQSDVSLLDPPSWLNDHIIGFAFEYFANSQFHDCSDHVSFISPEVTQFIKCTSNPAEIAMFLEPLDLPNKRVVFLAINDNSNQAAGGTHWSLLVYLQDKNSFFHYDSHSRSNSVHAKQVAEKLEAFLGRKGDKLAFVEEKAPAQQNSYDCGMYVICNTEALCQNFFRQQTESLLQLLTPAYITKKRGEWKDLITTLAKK

[12] = target: Sentrin-specific protease 6 (Homo sapiens, UniProt Q9GZR1); assay type: functional;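 also: Luminescence-based dose-response confirmatory assay of SENP6 inhibition, following up an ultra-high-throughput screen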
[13] = CEM21 cell cytotoxicity, dose response, cytotoxicity control, plate reader, dry powder (AID 687026); assay type: functional, cell-based
[14] = ZM109 Env clade C HIV-1 fusion inhibitors, dose response, HeLa effector, CEM target cells, luciferase, cherry-pick (AID 652058); assay type: functional, cell-based
Cysteine protease ATG4B = Cysteine protease ATG4B (Homo sapiens, UniProt Q9Y4P1); assay type: functional;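 also: Fluorescence-based dose-response confirmation assay measuring inhibition of ATG4B activity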
[15] = inhibitors of clade B AD8 Env fusion, dose response, cell-based, cherry-pick (AID 652062); assay type: functional;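 also: luciferase signal from cell-cell fusion driven by HIV-1 clade B AD8 Env; potency is for inhibitors of fusion seen as a drop in luminescence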
[16] = inhibitors of HIV Env-driven cell fusion, dose response, cherry-pick (AID 652057); assay type: functional, cell-based
Phospholipase A2 = Phospholipase A2 (Homo sapiens, UniProt P04054); assay type: functional;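 also: confirmatory dose-response counterscreen on phospholipase A2, testing hits that came from an ultra-high-throughput screen for ATG4B inhibitors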
[17] = HIV Env cell-cell fusion inhibitors, dose response, HIV entry, plate reader, dry powder (AID 687023); assay type: functional, cell-based
[18] = target: 5-hydroxytryptamine receptor 5A (Homo sapiens, UniProt P47898); assay: Counterscreen for agonists of OPRM1-OPRD1 heterodimerization: luminescence-based cell-based high throughput dose response assay to identify agonists of 5-hydroxytryptamine (serotonin) 5A receptor (HTR5A). [Related pubchem assays (depositor defined):AID504326, AID504355, AID504692, AID504904, AID504905]; assay type: functional
[19] = Luminescence Cell-Based Dose Retest to Confirm Inhibitors of Cancer Stem Cells. [Related pubchem assays (depositor defined):AID2717, AID2721]; assay type: functional; settings: Homo sapiens
[20] = target: Delta-type opioid receptor (Homo sapiens, UniProt P41143); assay: Counterscreen for agonists of heterodimerization of the mu 1 (OPRM1) and delta 1 (OPRD1) opioid receptors: Luminescence-based cell-based high throughput dose response assay to identify agonists of OPRD1 homodimerization. [Related pubchem assays (depositor defined):AID504326, AID504355, AID504692, AID504904, AID504905]; assay type: functional
Mu-type opioid receptor = Mu-type opioid receptor (Homo sapiens, UniProt P35372); assay: Counterscreen for agonists of heterodimerization of the mu 1 (OPRM1) and delta 1 (OPRD1) opioid receptors: Luminescence-based cell-based high throughput dose response assay to identify agonists of OPRM1 homodimerization.; assay type: functional;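 also: U2OS cells expressing OPRM1 and beta-arrestin as split beta-galactosidase partners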
[21] = target: DNA (cytosine-5)-methyltransferase 1 (Homo sapiens, UniProt P26358); assay: DNMT1 methyltransferase inhibitors, confirmation, biochemical, fluorescent molecular beacon (AID 602386); assay type: functional
Escherichia coli [22] = assay: microbe, parasite or virus in culture; remark: listed apart in the source
[23] = target: Ras and Rab interactor 1/Tyrosine-protein kinase ABL1 (Homo sapiens, UniProt P00519+Q13671); assay type: functional;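 also: biochemical TR-FRET dose-response test measuring inhibition of binding between Rin1 and Abl proteins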
[24] = target: Apoptotic protease-activating factor 1 (Homo sapiens, UniProt O14727); assay: SAR analysis of small molecule Activators of Apaf-1 in a Fluorescent assay.; assay type: functional; settings: read-out: EC50_Mean;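 also: caspase-3 cleavage of fluorogenic Rh110 DEVD substrate downstream of apoptosome activation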
[25] = growth suppression of beta-catenin-knockout colon cells, dose response, cell-based, HCT116, human colon tumor (AID 1045); assay type: functional;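 also: HCT116 colon tumor cells with beta catenin knocked out; cells exposed to compound for 60 hours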
[26] = growth suppression of PTEN-null colon cells, dose response, cell-based, HCT116 PTEN knockout (AID 1047); assay type: functional;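 also: HCT116 colon tumor cells with PTEN knocked out; cells exposed to compound for 60 hours before readout; potency for loss of cell viability measured by luminescence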

Sentrin-specific protease 7, sequence (Q9BQF6 whole entry): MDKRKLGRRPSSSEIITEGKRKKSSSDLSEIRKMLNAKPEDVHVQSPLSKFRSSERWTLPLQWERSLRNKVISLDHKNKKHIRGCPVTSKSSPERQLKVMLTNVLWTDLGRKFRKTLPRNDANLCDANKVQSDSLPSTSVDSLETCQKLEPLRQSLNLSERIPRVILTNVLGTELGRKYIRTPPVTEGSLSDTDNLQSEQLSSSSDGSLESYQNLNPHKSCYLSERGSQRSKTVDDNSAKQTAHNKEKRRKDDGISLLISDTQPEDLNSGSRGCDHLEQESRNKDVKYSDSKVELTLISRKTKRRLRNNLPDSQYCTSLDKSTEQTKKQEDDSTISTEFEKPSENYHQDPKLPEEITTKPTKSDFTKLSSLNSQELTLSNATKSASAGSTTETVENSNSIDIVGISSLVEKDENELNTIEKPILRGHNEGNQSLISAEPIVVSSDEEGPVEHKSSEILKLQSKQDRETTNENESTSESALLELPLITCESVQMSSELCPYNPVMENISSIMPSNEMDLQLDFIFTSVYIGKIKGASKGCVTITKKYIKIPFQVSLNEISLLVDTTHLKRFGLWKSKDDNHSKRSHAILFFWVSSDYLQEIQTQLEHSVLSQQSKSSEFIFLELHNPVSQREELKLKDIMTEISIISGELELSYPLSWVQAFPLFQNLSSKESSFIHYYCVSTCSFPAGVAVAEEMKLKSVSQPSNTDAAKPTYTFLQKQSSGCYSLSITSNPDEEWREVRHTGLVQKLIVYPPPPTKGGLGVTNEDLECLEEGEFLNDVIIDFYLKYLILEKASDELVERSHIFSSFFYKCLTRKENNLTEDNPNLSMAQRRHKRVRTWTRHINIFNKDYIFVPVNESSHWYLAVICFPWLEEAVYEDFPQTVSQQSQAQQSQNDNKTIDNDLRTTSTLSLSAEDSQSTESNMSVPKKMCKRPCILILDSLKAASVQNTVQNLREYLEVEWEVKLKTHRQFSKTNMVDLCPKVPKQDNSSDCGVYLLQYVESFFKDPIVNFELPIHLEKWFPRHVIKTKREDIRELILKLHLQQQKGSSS
72 kDa type IV collagenase, sequence (P08253 whole entry): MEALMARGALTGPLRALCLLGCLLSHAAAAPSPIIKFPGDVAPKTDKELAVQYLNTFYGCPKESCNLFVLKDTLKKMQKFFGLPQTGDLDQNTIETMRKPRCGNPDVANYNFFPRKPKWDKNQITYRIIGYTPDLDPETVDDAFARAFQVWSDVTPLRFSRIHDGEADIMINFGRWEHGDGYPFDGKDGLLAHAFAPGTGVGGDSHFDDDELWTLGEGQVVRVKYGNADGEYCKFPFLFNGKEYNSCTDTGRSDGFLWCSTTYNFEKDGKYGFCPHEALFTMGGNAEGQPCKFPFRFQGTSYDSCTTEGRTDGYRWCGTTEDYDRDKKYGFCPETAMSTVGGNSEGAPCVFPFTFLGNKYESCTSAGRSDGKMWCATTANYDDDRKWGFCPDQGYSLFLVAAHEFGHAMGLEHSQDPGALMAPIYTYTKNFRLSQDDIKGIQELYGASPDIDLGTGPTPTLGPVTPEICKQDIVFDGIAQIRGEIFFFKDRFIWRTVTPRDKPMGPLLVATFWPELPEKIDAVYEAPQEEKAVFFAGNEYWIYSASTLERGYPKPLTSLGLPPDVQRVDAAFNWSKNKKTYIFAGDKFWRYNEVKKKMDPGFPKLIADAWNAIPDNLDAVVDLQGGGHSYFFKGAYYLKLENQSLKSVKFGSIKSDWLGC
Mu-type opioid receptor, sequence (P35372 whole entry): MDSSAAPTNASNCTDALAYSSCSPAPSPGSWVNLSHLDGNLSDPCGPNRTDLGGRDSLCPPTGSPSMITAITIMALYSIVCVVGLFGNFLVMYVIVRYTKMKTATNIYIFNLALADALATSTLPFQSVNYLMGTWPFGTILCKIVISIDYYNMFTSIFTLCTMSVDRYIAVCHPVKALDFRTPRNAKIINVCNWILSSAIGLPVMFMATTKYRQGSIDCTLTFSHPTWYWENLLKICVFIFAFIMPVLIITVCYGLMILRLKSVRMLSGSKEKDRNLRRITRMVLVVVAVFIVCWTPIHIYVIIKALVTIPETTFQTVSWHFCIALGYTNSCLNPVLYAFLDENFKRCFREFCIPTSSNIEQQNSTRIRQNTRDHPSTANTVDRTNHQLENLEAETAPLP
26S proteasome non-ATPase regulatory subunit 14, sequence (O00487 whole entry): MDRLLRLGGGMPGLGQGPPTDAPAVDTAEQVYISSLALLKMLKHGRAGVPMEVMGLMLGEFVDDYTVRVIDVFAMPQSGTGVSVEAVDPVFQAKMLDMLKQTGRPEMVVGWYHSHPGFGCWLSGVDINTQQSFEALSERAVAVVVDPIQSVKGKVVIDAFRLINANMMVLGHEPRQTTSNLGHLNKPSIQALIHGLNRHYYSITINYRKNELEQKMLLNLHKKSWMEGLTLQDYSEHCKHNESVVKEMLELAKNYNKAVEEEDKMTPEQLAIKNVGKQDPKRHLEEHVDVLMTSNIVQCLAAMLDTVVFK
Cysteine protease ATG4B, sequence (Q9Y4P1 whole entry, the tested form may be a part): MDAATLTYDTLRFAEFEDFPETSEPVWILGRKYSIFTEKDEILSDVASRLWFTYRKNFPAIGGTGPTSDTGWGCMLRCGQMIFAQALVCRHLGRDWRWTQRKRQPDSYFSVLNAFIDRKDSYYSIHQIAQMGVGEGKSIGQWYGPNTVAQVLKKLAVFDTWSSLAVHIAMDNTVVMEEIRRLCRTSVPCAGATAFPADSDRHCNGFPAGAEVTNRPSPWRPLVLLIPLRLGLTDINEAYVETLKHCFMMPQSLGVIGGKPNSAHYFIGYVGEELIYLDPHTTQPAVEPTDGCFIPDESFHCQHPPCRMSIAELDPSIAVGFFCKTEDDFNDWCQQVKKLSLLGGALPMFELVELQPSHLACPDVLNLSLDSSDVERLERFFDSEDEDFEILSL
Delta-type opioid receptor, sequence (P41143 whole entry): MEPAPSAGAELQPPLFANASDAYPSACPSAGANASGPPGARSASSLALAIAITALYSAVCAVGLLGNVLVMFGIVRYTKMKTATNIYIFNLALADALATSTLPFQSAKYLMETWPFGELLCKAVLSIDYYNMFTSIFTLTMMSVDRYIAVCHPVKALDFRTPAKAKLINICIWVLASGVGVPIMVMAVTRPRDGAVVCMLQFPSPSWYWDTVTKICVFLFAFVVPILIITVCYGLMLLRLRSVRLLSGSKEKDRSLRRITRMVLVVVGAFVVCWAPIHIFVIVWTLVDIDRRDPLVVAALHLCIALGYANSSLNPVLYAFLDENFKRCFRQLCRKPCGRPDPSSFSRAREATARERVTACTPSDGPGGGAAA
5-hydroxytryptamine receptor 5A, sequence (P47898 whole entry): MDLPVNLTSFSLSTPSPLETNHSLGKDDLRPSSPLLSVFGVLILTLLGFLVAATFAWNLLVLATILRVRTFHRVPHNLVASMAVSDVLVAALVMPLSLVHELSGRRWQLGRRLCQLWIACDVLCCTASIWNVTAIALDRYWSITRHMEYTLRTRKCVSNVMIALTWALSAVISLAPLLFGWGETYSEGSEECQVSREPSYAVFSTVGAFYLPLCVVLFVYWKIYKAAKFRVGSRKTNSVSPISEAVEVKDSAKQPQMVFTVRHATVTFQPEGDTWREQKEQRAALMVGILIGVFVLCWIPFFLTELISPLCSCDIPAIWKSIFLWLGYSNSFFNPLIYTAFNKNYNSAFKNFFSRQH
Phospholipase A2, sequence (P04054 whole entry, the tested form may be a part): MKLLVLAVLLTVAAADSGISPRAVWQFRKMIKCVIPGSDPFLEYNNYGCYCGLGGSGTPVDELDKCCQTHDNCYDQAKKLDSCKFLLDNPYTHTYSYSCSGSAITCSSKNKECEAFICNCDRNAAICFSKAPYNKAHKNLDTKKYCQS
Sentrin-specific protease 6, sequence (Q9GZR1 whole entry): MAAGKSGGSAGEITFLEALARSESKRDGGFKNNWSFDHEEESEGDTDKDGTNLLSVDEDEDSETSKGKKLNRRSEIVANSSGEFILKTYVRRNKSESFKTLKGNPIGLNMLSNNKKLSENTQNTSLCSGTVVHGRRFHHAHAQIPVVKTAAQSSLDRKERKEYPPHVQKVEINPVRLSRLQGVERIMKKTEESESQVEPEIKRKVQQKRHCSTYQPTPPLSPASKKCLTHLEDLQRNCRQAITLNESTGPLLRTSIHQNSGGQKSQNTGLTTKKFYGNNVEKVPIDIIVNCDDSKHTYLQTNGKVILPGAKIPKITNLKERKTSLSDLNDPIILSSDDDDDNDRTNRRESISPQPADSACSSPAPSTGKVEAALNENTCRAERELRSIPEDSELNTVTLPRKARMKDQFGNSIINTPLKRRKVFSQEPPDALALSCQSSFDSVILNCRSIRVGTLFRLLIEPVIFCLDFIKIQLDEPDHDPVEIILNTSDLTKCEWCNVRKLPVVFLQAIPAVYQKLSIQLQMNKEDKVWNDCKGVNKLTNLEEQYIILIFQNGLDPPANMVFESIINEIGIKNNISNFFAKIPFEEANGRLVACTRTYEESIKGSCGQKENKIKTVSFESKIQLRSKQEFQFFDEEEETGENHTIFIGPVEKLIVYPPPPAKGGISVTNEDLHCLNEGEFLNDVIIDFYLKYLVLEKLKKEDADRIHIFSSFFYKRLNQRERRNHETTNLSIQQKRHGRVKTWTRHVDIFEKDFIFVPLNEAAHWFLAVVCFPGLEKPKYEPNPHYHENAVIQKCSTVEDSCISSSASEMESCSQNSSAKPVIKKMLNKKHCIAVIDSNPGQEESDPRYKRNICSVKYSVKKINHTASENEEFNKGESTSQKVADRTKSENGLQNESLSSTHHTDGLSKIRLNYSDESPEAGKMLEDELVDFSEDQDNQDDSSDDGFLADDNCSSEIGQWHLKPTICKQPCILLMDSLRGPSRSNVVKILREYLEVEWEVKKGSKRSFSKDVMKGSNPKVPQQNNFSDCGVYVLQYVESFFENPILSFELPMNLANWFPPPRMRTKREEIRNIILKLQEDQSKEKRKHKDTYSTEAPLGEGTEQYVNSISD

## CCN(CC)CCCNC(=O)c1cn(CC)c2ccc(S(=O)(=O)N3CCc4ccccc4C3)cc2c1=O
[1]
  IC50: 4.17 µM (active)
[2]
  IC50: 2.67 µM (active)

## COC(=O)c1sc2nc(CSc3ccc(Br)cc3)[nH]c(=O)c2c1C
[3]
  IC50: 26.6 µM (active)
Prothrombin
  IC50: 30 µM (active)
[4]
  IC50: > 100 µM (inactive)

## O=S(=O)([N-]c1nc2ccccc2nc1-[n+]1ccc(-c2ccncc2)cc1)c1ccccc1
Keap1/Nrf2
  AC50: 31.5 µM (active)
[5]
  EC50: > 53 µM (inactive)
[6]
  EC50: 9.78 µM (active)
[7]
  EC50: 55 µM (active)
H4
  EC50: > 120 µM (not active)

## CN(C)S(=O)(=O)c1ccc(N2CCCC2)c(C(=O)NNC(=O)c2ccc(Br)cc2)c1
[8]
  IC50: 3.72 µM (active)

## CN(C/C=C/c1ccccc1[N+](=O)[O-])Cc1ccccc1
Escherichia coli [9]
  AC50: 42.7 µM (active)

## Cc1ccccc1-c1nnc(SCc2ccccc2F)o1
[10]
  IC50: 6.14 µM (active)
Caspase-3
  IC50: 29.1 µM (active)
[11]
  IC50: 45.1 µM (active)
[12]
  IC50: 21.9 µM (active)

## Cc1nnsc1NC(=O)OCc1ccccc1Cl
[10]
  IC50: 13 µM (active)
Caspase-3
  IC50: 21.4 µM (active)
[11]
  IC50: 52.7 µM (active)
[12]
  IC50: 45.6 µM (active)

## CCOc1ccc(C(=O)C2CCN(CC(=O)Nc3ccccc3N3CCOCC3)CC2)cc1
[13]
  AC50: > 70 µM (inactive)
[14]
  AC50: 10.8 µM (active)
Cysteine protease ATG4B
  IC50: 13.2 µM (active)
[15]
  AC50: 0.94 µM (active)
[16]
  AC50: 3.34 µM (active)
Phospholipase A2
  IC50: 11.9 µM (active)
[17]
  AC50: 10.4 µM (active)

## COc1ccc(NS(=O)(=O)c2ccc(O)c(NC(=O)c3cc4c(C)nn(-c5ccc(F)cc5)c4s3)c2)cc1
[5]
  EC50: > 53 µM (inactive)
[18]
  EC50: > 92.5 µM (inactive)
[19]
  AC50: 2.11 µM (active)
[20]
  EC50: > 92.5 µM (inactive)
Mu-type opioid receptor
  EC50: > 92.5 µM (inactive)
[21]
  IC50: 6.92 µM (active)

## CCN(CC)CCCNC(=O)c1ccccc1NC(=O)C1=CSCCO1
[1]
  IC50: 4.48 µM (active)
[2]
  IC50: 3.57 µM (active)

## CN(C)CCCN/C=C1\C(=O)NC(=O)N(CCc2ccccc2)C1=O
[3]
  IC50: 28.7 µM (active)
Prothrombin
  IC50: 35.1 µM (active)
[4]
  IC50: > 100 µM (inactive)

## CCc1ccccc1NC(=O)CNC1CCCCC1.[O-][Cl+3]([O-])([O-])O
Escherichia coli [22]
  AC50: 22.6 µM (active)
Escherichia coli [9]
  AC50: 76.7 µM (active)

## CCOC(=O)CCCCCC(=O)Nc1ccc2c(c1)CC(=O)N([C@H](C)CO)C[C@@H](C)[C@H](CN(C)Cc1ccc3c(c1)OCO3)O2
[23]
  IC50: 30.8 µM (inactive)

## CCCCCCC1CC(Cc2c(C)[nH]c3ccccc23)C(=O)O1 (centres undefined)
[24]
  EC50: > 100 µM (inactive)

## COc1ccc2[nH]c3c(=O)n(/N=C/[C@H]4C(C)C=C(C)CC4C)c(=O)[nH]c3c2c1 (some centres undefined)
[18]
  EC50: > 92.5 µM (inactive)
[20]
  EC50: > 92.5 µM (inactive)
[25]
  EC50: 35.4 µM (active)
Mu-type opioid receptor
  EC50: > 92.5 µM (inactive)
[26]
  EC50: 30.5 µM (active)

## O=C(O)c1cc(N/N=C2/CC(c3ccccc3)Oc3ccccc32)ccc1Cl (centres undefined)
Cysteine protease ATG4B
  IC50: 7.53 µM (active)
Phospholipase A2
  IC50: 7.77 µM (active)
